pIC50: −log10 of the molar value.
Target: T1, G1 APOL1 (Homo sapiens, UniProt O14791, I384M/S342G)
T1 construct: expressed in transfected cells
T1 sequence (O14791 28-398 S342G/I384M): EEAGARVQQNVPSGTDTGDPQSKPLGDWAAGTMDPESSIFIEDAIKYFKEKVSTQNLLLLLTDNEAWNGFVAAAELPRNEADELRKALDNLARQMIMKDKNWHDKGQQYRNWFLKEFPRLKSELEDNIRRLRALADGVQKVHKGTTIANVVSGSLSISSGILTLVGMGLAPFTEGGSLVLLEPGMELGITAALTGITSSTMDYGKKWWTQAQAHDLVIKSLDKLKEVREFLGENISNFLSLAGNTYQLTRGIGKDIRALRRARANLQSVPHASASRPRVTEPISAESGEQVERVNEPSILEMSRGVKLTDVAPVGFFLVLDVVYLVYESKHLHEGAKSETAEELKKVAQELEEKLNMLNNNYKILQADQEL
Assay: Acute APOL1 Thallium Assay with inducible stable clones of HEK 293 cells
Type: cell-based
Conditions: HEK T-Rex tetracycline-inducible cells expressing G1 APOL1 (clone G1 DC3.25); inhibition of thallium flux rate
Source text: Acute APOL1 Thallium Assay with Inducible Stable Clones of HEK 293 Cells
Apolipoprotein L1 (APOL1) proteins form potassium-permeable cation pores in the plasma membrane. APOL1 risk variants (G1 and G2) induce greater potassium flux than G0 in HEK293 cells. This assay exploits the permeability of thallium (T1+) through ligand-gated potassium channels. The dye produces a bright fluorescent signal upon binding to T1+ conducted through potassium channels. The intensity of the T1+ signal is proportional to the number of potassium channels in the open state. Therefore, it provides a functional indication of the potassium channel activities. During the initial dye-loading step, the T1+ indicator dye as an acetoxymethyl (AM) ester enters the cells through passive diffusion. Cytoplasm esterases cleave the AM ester and relieve its active thallium-sensitive form. The cells are then stimulated with T1+. The increase of fluorescence in the assay represents the influx of T1+ into the cell specifically through the potassium channel (i.e. through APOL1 pores), providing a functional measurement of potassium channel/pore activity. The Thallium assay is conducted with cells expressing G1 APOL1.
APOL1 Cell Line (HEK T-Rex Stable Inducible Cell Line) • HEK T-Rex System • Tetracycline (Tet) inducible mammalian expression system. • Stably express the Tet repressor to regulate transcription. • Expression under the full-length CMV promoter. • APOL1 stable inducible cell line Clone used: G1 DC3.25
Tissue Culture Media • Cell Culture Medium • DMEM +10% FBS +P/S +5 μg/mL blasticidin+1 μg/mL puromycin. • 500 mL DMEM +55 mL FBS +5 mL P/S +280 μL blasticidin S HCl (10 mg/mL)+56 μL puromycin (10 mg/mL). • Cell Assay Medium • DMEM with 2% FBS+pen strep.
Instruments and Equipment • Nuaire cell culture hood, Cat. No. 540-600 • 37° C./5% CO2 incubator link to robotic arm, Liconic: STX110 • Molecular Devices FLIPR^Tetra High throughput cellular screening system, Cat. No. FT0324, Molecular Devices • ThermoFisher MultiDrop 384, Cat. No. 5840300 • Biotek Microfill, Cat. No. ASF1000A-4145 • BioRad TC10 cell counter, Cat. No. 145-0010 Assay Procedures
Cells Scaled Up from Frozen Vials • APOL1 G1 3.25 (HEK293 T-Rex) frozen vials: 5 million cells per vial • Step 1, Day 1: Defrost frozen vial into T-225. • Step 2, Day 5: (when 85% confluent): Split one T-225 at 3×10^6 cells per flask. • Step 3, Day 8: Splits cells to set up for the assay plates as described below.
T-Rex APOL1 HEK cells are split twice per week to keep the confluence state below 85% of the culture flask surface area. Cells can be kept until passage 25. • Cell Culture Medium • DMEM high glucose +10% FBS, +P/S, +5 μg/mL blasticidin, +1 μg/mL puromycin. • 500 mL DMEM, +55 mL FBS, +5 mL P/S, +280 μL blasicidin 10 mg/mL, +56 μL Puromycin 10 mg/mL. • Assay Media • Opti-MEM reduced serum medium from Invitrogen.
Preparation of Cell Assay Plates • Culture medium is removed from the x cm^2 T-flask by aspiration. • The cell monolayer is rinsed with PBS 1× at room temperature. PBS is removed by aspiration. • Cells are trypsinized using Trypsin. • The flasks are incubated at room temperature for 2-3 minutes. • Complete DMEM medium is then added. Cell suspension is then transferred to a 50 mL Falcon polypropylene tube. • Cells are then counted using a Biorad TC10 cell counter and the required amount of cells are centrifuged at 1200 RPM for 5 minutes. Required amount is 1.3×10^6 cells/mL APOL1 T-Rex HEK cells. • The pellet is suspended in the assay medium. • Using the MultiDrop, add 20 μL to each well (corresponds to 26000 cells total per well) of a 384-well black, transparent, flat bottom Poly-D coated plate. • Tetracycline as prepared in the following section is added to the cells before plating to induce APOL1 expression. • Plates are left at room temperature for 20 to 30 minutes before incubation at 37° C. and 5% CO2. […]

SMILES	pIC50
Cc1c(F)ccc2c(CCC(=O)N[C@@H]3C(=O)NC[C@H]3O)c(-c3ccccc3)[nH]c12 [Compound 84]	> 6.60
C[C@@H](Cc1c(-c2ccc(F)cc2)[nH]c2c(F)cc(F)cc12)C(=O)N[C@H]1CCNC1=O [Compound 90, (2S)-3-[5,7-difluoro-2-(4-fluorophenyl)-1H-indol-3-yl]-2-methyl-N-[(3S)-2-oxopyrrolidin-3-yl]propanamide]	< 6.00
C[C@@H](Cc1c(-c2ccc(F)cc2)[nH]c2c(F)cc(F)cc12)C(=O)N[C@@H]1C(=O)NC[C@H]1O [Compound 91, (2S)-3-[5,7-difluoro-2-(4-fluorophenyl)-1H-indol-3-yl]-N-[(3S,4R)-4-hydroxy-2-oxo-pyrrolidin-3-yl]-2-methyl-propanamide]	6.00 to 6.60
O=C(N[C@@H]1C(=O)NC[C@H]1O)[C@H](O)Cc1c(-c2ccc(F)cc2)[nH]c2c(F)cc(F)cc12 [Compound 92, (2R)-3-[5,7-difluoro-2-(4-fluorophenyl)-1H-indol-3-yl]-2-hydroxy-N-[(3S,4R)-4-hydroxy-2-oxo-pyrrolidin-3-yl]propanamide]	< 6.00
O=C(N[C@H]1CCNC1=O)[C@H](O)Cc1c(-c2ccc(F)cc2)[nH]c2c(F)cc(F)cc12 [Compound 93, (2R)-3-[5,7-difluoro-2-(4-fluorophenyl)-1H-indol-3-yl]-2-hydroxy-N-[(3S)-2-oxopyrrolidin-3-yl]propanamide]	< 6.00
O=C1NC[C@@H](O)[C@@H]1NC(=O)[C@@H](O)Cc1c(-c2ccc(F)cc2)[nH]c2c(F)cc(F)cc12 [Compound 94, (2S)-3-[5,7-difluoro-2-(4-fluorophenyl)-1H-indol-3-yl]-2-hydroxy-N-[(3S,4R)-4-hydroxy-2-oxo-pyrrolidin-3-yl]propanamide]	< 6.00
O=C(CCc1c(-c2ccc(F)cc2)[nH]c2c(C(F)F)cc(F)cc12)N[C@@H]1C(=O)NC[C@H]1O [Compound 100, 3-[7-(difluoromethyl)-5-fluoro-2-(4-fluorophenyl)-1H-indol-3-yl]-N-[(3S,4R)-4-hydroxy-2-oxo-pyrrolidin-3-yl]propanamide]	> 6.60
O=C(CCc1c(-c2ccccc2)[nH]c2c(C(F)(F)F)cc(F)cc12)N[C@@H]1C(=O)NC[C@H]1O [Compound 132, 3-[5-fluoro-2-phenyl-7-(trifluoromethyl)-1H-indol-3-yl]-N-[(3S,4R)-4-hydroxy-2-oxo-pyrrolidin-3-yl]propanamide]	> 6.60
O=C(CCc1c(-c2ccc(F)cc2)[nH]c2ccccc12)N[C@H]1C(=O)NC[C@@H]1O [Compound 134, 3-[2-(4-fluorophenyl)-1H-indol-3-yl]-N-[(3R,4S)-4-hydroxy-2-oxo-pyrrolidin-3-yl]propanamide]	< 6.00
O=C(CCc1c(-c2ccc(F)cc2)[nH]c2ccccc12)N[C@@H]1C(=O)NC[C@@H]1O [Compound 135, 3-[2-(4-fluorophenyl)-1H-indol-3-yl]-N-[(3S,4S)-4-hydroxy-2-oxo-pyrrolidin-3-yl]propanamide]	< 6.00

Results, then the compound that gave them:

pIC50	SMILES
> 6.60	O=C(CCc1c(-c2ccc(F)cc2)[nH]c2c(F)cc(OC(F)F)cc12)N[C@@H]1C(=O)NC[C@H]1O [Compound 106]
> 6.60	O=C(CCc1c(-c2ccc(F)cc2)[nH]c2c(C(F)(F)F)cccc12)N[C@@H]1C(=O)NC[C@H]1O [Compound 111, 3-[2-(4-fluorophenyl)-7-(trifluoromethyl)-1H-indol-3-yl]-N-[(3S,4R)-4-hydroxy-2-oxo-pyrrolidin-3-yl]propanamide]
> 6.60	O=C(CCc1c(-c2ccc(Cl)cc2)[nH]c2c(Cl)cccc12)N[C@@H]1C(=O)NC[C@H]1O [Compound 113, 3-[7-chloro-2-(4-chlorophenyl)-1H-indol-3-yl]-N-[(3S,4R)-4-hydroxy-2-oxo-pyrrolidin-3-yl]propanamide]
> 6.60	O=C(CCc1c(-c2ccc(OC(F)F)cc2)[nH]c2ccccc12)N[C@@H]1C(=O)NC[C@H]1O [Compound 117]
6.00 to 6.60	Cc1cc(F)ccc1-c1[nH]c2ccccc2c1CCC(=O)N[C@@H]1C(=O)NC[C@H]1O [Compound 119]
> 6.60	O=C(CSc1c(-c2ccc(F)cc2)[nH]c2ccccc12)N[C@@H]1C(=O)NC[C@H]1O [Compound 130, 2-[[2-(4-fluorophenyl)-1H-indol-3-yl]sulfanyl]-N-[(3S,4R)-4-hydroxy-2-oxo-pyrrolidin-3-yl]acetamide]
6.00 to 6.60	O=C(CCc1c(-c2ccc(F)cc2)[nH]c2ccccc12)N[C@H]1C(=O)NC[C@H]1O [Compound 133, 3-[2-(4-fluorophenyl)-1H-indol-3-yl]-N-[(3R,4R)-4-hydroxy-2-oxo-pyrrolidin-3-yl]propanamide]
